Reference: patent US12318361B2, “Methods for treating cardiovascular diseases” (Olatec Therapeutics LLC, priority 2017, dated 2025)

Legend:
[1] = test system: IL-1β release from human monocytes-derived macrophages; assay: Suppression of IL-1β release from human monocytes-derived macrophages (LPS priming, nigericin release, ELISA); type: cell-based
Experimental: (§1) Peripheral blood mononuclear cells (PBMCs) were isolated from blood of 6 healthy human donors and differenciates in macrophages using GM-CSF (5 ng/ml) for 5 days. They were stimulated with 1 μg/mL with lipopolysaccharide (LPS, priming phase) at time zero. At 30 minutes, they were incubated with different concentrations of dapansutrile (OLT1177™) from 0.001-100 μM. At 4 hours, 10 μM of nigericin (NIG, release phase) was added. At the end of an 5 hour incubation period, the supernatant was harvested and assayed for IL-1β or IL-18 using respective ELISA kits following manafacturer's protocols.

[2] = test system: IL-1β, IL-6 and IL-1α in hearts of mice; assay: Cytokine levels in heart homogenates after in vivo lipopolysaccharide challenge; set-up: species or system C57BL/6J mice; conditions: 200 mg/kg IP every 12 h for 5 doses; LPS 5 mg/kg IP, 2 h; vs saline, P<0.05
Experimental: C57BL/6J mice male mice, 22-26 grams (Jackson Laboratories, Bar Harbor, ME) were treated with 200 mg/kg dapansutrile (OLT1177™) in 200 μl of saline or the matching volume of vehicle (saline) intraperitoneally (IP) every 12 hours for 5 doses. One hour after the last dose or saline, the animals were injected IP with 200 μl of lipopolysaccharide (LPS, E. coli, 055: B5, Sigma-Aldrich) at 5 mg/kg and sacrificed after 2 h. Cytokines were measured in hearts homogenates. Tissue homogenates were lysed using RIPA buffer (Sigma-Aldrich) containing a mixture of protease inhibitors (Roche, Indianapolis, IN), centrifuged at 13,000g for 20 minutes at 4° C., and the supernatants were assayed for cytokine levels of IL-1β, IL-6 and IL-1α. The cytokine concentrations were corrected for total protein content.
The dose of LPS that was used in the study covers ischemic inflammation, vascular inflammation and cell-mediated inflammation.

[3] = target: T1, NLRP3 inflammasome (association of caspase-1 with NLRP3) (Homo sapiens, UniProt Q96P20); assay: FRET analysis of NLRP3 inflammasome assembly in human monocyte-derived macrophages after LPS/ATP; type: cell-based; conditions: 50 μM, HMDM from 4 donors, P<0.01
T1 construct: endogenous in cells; host or cells: human monocyte-derived macrophages (HMDM) from 4 healthy donors
T1 sequence (Q96P20 whole entry): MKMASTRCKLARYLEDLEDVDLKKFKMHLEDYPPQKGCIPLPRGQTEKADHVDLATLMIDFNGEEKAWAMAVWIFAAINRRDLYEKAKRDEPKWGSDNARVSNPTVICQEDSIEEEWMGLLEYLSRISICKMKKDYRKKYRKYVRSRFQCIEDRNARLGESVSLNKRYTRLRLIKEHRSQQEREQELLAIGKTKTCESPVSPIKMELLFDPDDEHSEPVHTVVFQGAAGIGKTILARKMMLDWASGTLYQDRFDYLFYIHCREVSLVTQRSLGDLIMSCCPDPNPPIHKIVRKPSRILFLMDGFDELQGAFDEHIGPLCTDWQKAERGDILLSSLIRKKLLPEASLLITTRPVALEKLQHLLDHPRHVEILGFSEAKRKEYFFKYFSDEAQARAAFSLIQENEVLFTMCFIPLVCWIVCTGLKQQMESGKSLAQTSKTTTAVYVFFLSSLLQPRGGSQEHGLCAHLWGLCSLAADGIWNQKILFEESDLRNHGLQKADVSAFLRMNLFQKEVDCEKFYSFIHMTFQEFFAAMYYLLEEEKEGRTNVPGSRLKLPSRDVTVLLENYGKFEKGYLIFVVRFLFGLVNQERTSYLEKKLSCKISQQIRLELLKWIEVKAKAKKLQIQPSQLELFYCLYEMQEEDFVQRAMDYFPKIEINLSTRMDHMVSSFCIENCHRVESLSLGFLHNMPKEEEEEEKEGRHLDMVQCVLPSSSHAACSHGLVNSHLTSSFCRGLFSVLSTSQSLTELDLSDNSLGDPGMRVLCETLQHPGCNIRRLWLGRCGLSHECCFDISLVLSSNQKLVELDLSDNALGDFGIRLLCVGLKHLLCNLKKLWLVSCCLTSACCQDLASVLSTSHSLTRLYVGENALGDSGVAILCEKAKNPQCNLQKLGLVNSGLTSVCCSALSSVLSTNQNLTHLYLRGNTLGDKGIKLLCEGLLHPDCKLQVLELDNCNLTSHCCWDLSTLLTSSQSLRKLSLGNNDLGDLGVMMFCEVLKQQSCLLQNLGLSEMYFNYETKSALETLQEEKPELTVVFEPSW
Experimental: Human monocyte-derived macrophages (HMDM) were cultured on glass slides for 5 days with GM-CSF, stimulated for 4 hours with […] LPS and then treated with 5 mM ATP for one hour. Dapansutrile (OLT1177™, 50 μM) was added to the cells either 30 minutes following LPS stimulation or at the same time as ATP.
After washing with PBS, the cells were fixed and permeabilized with 70-30 acetone-methanol as described by Gamboni et al, Physiol Rep., 2 (7), 2014. Briefly, cells were placed in a humidified slide chamber blocked for 1 hour in 10% normal donkey serum (Jackson Immunologicals, Westgrove, PA). After removal of the donkey serum, the primary antibodies to human NLRP3 (Cryo-2, AdipoGen San Diego, CA), human caspase-1 (sc-515, Santa Cruz Biotechnology) or isomolar, species-specific anti-IgG (R&D Systems) were added and kept overnight at 4° C. […] FRET images were acquired using a Marianas Imaging Station using a Zeiss 639 Plan-Apochromat objective (1.4 N/A), a Sutter Xenon light source and a Cooke SensiCam as described by Gamboni et al. The corrected FRET was calculated as FRET=Transfer-Fd/D donor-Fa/Aa acceptor as reported by Berney et al, Biophys J., 84:3992-4010, 2003. […]

caspase-1 = assay: Western blot for caspase-1 (p45 and p10) in J774A.1 cells after LPS/ATP stimulation; type: cell-based, murine
Experimental: J774A.1 murine macrophages cells were stimulated with 1 μg/ml lipopolysaccharide (LPS) for 4 hours and either nigericin (NIG, 10 μM) or ATP (5 mM) was added for 1 hour. OLT1177™ was added to the cells either 30 minutes following LPS stimulation or at the same time as ATP.
A subunit of activated caspase-1 (p10) was reduced in J774A.1 cells in the presence of dapansutrile (OLT).

[4] = test system: IL-18 release from human monocytes-derived macrophages; assay: Suppression of IL-18 release from human monocytes-derived macrophages (LPS priming, nigericin release, ELISA); type: cell-based
Experimental: as §1

[5] = HMDM, 1 μg/mL LPS then 10 μM nigericin, 0.001-100 μM tested
[6] = LPS/nigericin, compared to control

CS(=O)(=O)CCC#N [OLT1177™, 3-methanesulfonyl-propionitrile]
concentration of maximum suppression effect on IL-1β release [1, 5]: 1 µM
release of IL-1β from stimulated monocytes-derived macrophages [1, 6]: suppresses
cytokine level of IL-1α in hearts [2]: reduced
cytokine level of IL-1β in hearts [2]: reduced
cytokine level of IL-6 in hearts [2]: reduced
association of caspase-1 with NLRP3 (FRET intensity) [3]: reduced
subunit of activated caspase-1 (p10), Western blot (caspase-1): reduced
concentration of maximum suppression effects on IL-18 release [4, 5]: 10 to 50 µM
release of IL-18 from stimulated monocytes-derived macrophages [4, 6]: suppresses
